Patent US20080188513A1, “1-(2-Methylpropyl)-1H-Imidazo[4,5-C](1,5]Naphthyridin-4-Amine Ethanesulfonate and 1-(2-Methylpropyl)-1H-Imidazo[4,5-C](1,5]Naphthyridin-4-Amine Methanesulfonate” (taked Pharmaceutical Company Limited, priority 2004, published 2008)
Converted amounts (≈) assume the structure as drawn. “And” between values parts separate entries of the source, which are not always exact repeats. Equal entries are not always repeated.

Tests used:
[1] = pKa determined potentiometrically; format: physicochemical; details: determined potentiometrically in a separate experiment
Experimental: (§1) The aqueous solubility of 1-(2-methylpropyl)-1H-imidazo[4,5-c][1,5]naphthyridin-4-amine free base was measured potentiometrically as a function of pH. […] The titration was carried out on a sample approximately 3 mg in size. […] The pKa of 1-(2-methylpropyl)-1H-imidazo[4,5-c][1,5]naphthyridin-4-amine, determined potentiometrically in a separate experiment to be 6.1, was used in the calculation to determine the intrinsic solubility. The curve showing solubility as a function of pH for 1-(2-methylpropyl)-1H-imidazo[4,5-c][1,5]naphthyridin-4-amine free base is shown in FIG. 5.

cytokine biosynthesis = details: U.S. Pat. No. 6,194,425; cited from earlier work
[2] = Aqueous solubility of the free base measured potentiometrically as a function of pH (p-SOL microtitrator); format: physicochemical; details: saline or isotonic, thermodynamic from solid, 0.15 M aqueous potassium chloride, potentiometric titration, read-out: intrinsic solubility (So)
Experimental: as §1

[3] = In-situ salt selection test carried out in water; format: physicochemical; details: for aqueous solubility (in words): summary statement; for Appearance: appearance of the resulting solution after 24 hours at 25° C., in water; for solubility at 24 h: water (salt formed in situ with aqueous acid), thermodynamic from solid
Experimental: Aqueous solutions (0.5 molar (M)) of ethanesulfonic acid, methanesulfonic acid, and hydrochloric acid were prepared. For ethanesulfonic acid and methanesulfonic acid, the neat acid (0.05 mol) was dissolved in water (100 mL) to prepare the solutions. Hydrochloric acid (1 normal (N)) was diluted with water to prepare 0.5 M hydrochloric acid. The free base of 1-(2-methylpropyl)-1H-imidazo[4,5-c][1,5]naphthyridin-4-amine in an amount indicated in the following Table 1 was added to a vial, and the acidic solution from the following Table 1 (1.05 equivalent) was added. The vial was capped and shaken at 25° C. in a water bath for 24 hours. The resulting salt mixture or solution was filtered through Whatman No. 5 filter paper, and 1 mL of the filtrate was diluted with methanol (10 mL) to provide a specimen for analysis. The solubility of the salt in water was determined for each specimen by analyzing for soluble salt content by reverse phase high performance liquid chromatography (HPLC) using the following method.
A diluent was prepared by dissolving phosphoric acid (1 mL of 85%) in HPLC grade water (1 L). The resulting solution was mixed in a 60:40 ratio with acetonitrile. Each specimen was diluted to a volume of 50.0 mL with the diluent to provide a sample having a concentration of less than or equal to (≦) 50 micrograms per milliliter (μg/mL).
An external standard was prepared by dissolving 1-(2-methylpropyl)-1H-imidazo[4,5-c][1,5]naphthyridin-4-amine free base (25 mg) in methanol (30 mL) with the aid of sonication and then diluting to a volume of 50.0 mL with methanol to provide a stock solution. Diluent was added to 5 mL of the stock solution to a volume of 50.0 mL.
A Waters LC Module 1 HPLC system equipped with an autosampler, a reproducible injector, a UV detector (326 nm wavelength), and Turbochrom data acquisition software was used with a ZORBAX Bonus-RP C14, 15 cm×4.6 mm column with 5 μm packing. The mobile phase was prepared by dissolving 1-octanesulfonate, sodium salt (2.00 g) and phosphoric acid (1 mL of 85%) in HPLC grade water (1 L) and mixing the resulting solution in a 65:35 ratio with HPLC grade acetonitrile. A flow rate of 1.0 mL/min was used.
The column was equilibrated with the mobile phase, and the system was tested using six 20 μL injections of the external standard to ensure that the relative standard deviation for the peak areas was less than or equal to (≦) 1.5%. An injection of each sample (20 μL) was tested in comparison to a standard. The concentration, in percentage, of 1-(2-methylpropyl)-1H-imidazo[4,5-c][1,5]naphthyridin-4-amine in solution was then calculated using the following operation: {[peak area of the sample/weight of the sample (mg)]/[peak area of the standard/weight of the standard (mg)]average}×100. The solubility of the salt, presented in the following Table 1, can then be calculated using the equations presented by Tong, W. Q., and Whitesell, G, Pharmaceutical Development and Technology, 3(2), pp. 215-223 (1998).

[4] = In-situ salt selection test carried out in water with a cosolvent; format: physicochemical; details: 25 °C, aqueous with cosolvent or surfactant or cyclodextrin, thermodynamic from solid, final acid concentration 0.05 M
[5] = Physical and chemical stability in solid form; format: physicochemical
[6] = tested on: interferon (α) and tumor necrosis factor (α) secreted by peripheral blood mononuclear cells (PBMC); assay: Cytokine induction in human cells (PBMC); format: cell-based; details: 18 to 24 hours, 30-0.014 μM
Source text: An in vitro human blood cell system is used to assess cytokine induction. Activity is based on the measurement of interferon (α) and tumor necrosis factor (α) (IFN and TNF, respectively) secreted into culture media as described by Testerman et al. in “Cytokine Induction by the Immunomodulators Imiquimod and S-27609,” Journal of Leukocyte Biology, 58, 365-372 (September, 1995).
Whole blood from healthy human donors is collected by venipuncture into EDTA vacutainer tubes. Peripheral blood mononuclear cells (PBMC) are separated from whole blood by density gradient centrifugation using HISTOPAQUE-1077. […]
Following incubation the plates are centrifuged for 10 minutes at 1000 revolutions per minute (rpm) (approximately 200×g) at 4° C. […] The samples are analyzed for interferon (α) by ELISA and for tumor necrosis factor (α) by ELISA or IGEN Assay.
Interferon (α) concentration is determined by ELISA using a Human Multi-Species kit from PBL Biomedical Laboratories, New Brunswick, N.J. Results are expressed in pg/mL.
Tumor necrosis factor (α) (TNF) concentration is determined using ELISA kits available from Biosource International, Camarillo, Calif. Alternately, the TNF concentration can be determined by ORIGEN M-Series Immunoassay and read on an IGEN M-8 analyzer from IGEN International, Gaithersburg, Md. […]

[7] = 5% (w/w) diethylene glycol monoethyl ether in water
[8] = 5% (w/w) propylene glycol in water
[9] = salt formed in situ in water, shaken at 25° C. for 24 hours, filtrate by HPLC

melting point | pKa [1] | solubility [2] [mg/mL] | aqueous solubility (in words) [3] | solubility at 24 h [4, 7] [mg/mL] | solubility at 24 h [4, 8] [mg/mL] | Appearance [3] | solubility at 24 h [3, 9] [mg/mL] | solubility [3, 9] [mg/mL] | SMILES | ability to induce cytokine biosynthesis (cytokine biosynthesis) | physical and chemical stability in solid form [5] | induction of interferon α and/or tumor necrosis factor α production [6]
 | 6.1 | 0.003 (≈ 12.4 µM) | particularly low aqueous solubility |  |  |  |  |  | CC(C)Cn1cnc2c(N)nc3cccnc3c21 [1-(2-methylpropyl)-1H-imidazo[4,5-c][1,5]naphthyridin-4-amine] | ability to induce cytokine biosynthesis |  | 
 |  |  | good aqueous solubility | 10.5 | > 10.1 | Clear | 24.4 |  | CC(C)Cn1cnc2c(N)nc3cccnc3c21.CCS(=O)(=O)O [Ethanesulfonic, 1-(2-methylpropyl)-1H-imidazo[4,5-c][1,5]naphthyridin-4-amine ethanesulfonate] |  | good physical and chemical stability in solid form | inducing the production of interferon α and/or tumor necrosis factor α
 |  |  | low aqueous solubility |  |  | Milky, |  | 0.39 | CC(C)Cn1cnc2c(N)nc3cccnc3c21.Cl [Hydrochloric, hydrochloride salt of 1-(2-methylpropyl)-1H-imidazo[4,5-c][1,5]naphthyridin-4-amine, reference compound] |  |  | 

More lines, now with the values behind:

SMILES | melting point | pKa [1] | solubility [2] [mg/mL] | aqueous solubility (in words) [3] | solubility at 24 h [4, 7] [mg/mL] | solubility at 24 h [4, 8] [mg/mL] | Appearance [3] | solubility at 24 h [3, 9] [mg/mL] | solubility [3, 9] [mg/mL] | ability to induce cytokine biosynthesis (cytokine biosynthesis) | physical and chemical stability in solid form [5] | induction of interferon α and/or tumor necrosis factor α production [6]
CC(C)Cn1cnc2c(N)nc3cccnc3c21.CCS(=O)(=O)O.O (hydrate or solvate) | 221.5 to 223.4 °C and 220 to 221 °C |  |  |  |  |  |  |  |  |  |  | 
CC(C)Cn1cnc2c(N)nc3cccnc3c21.CS(=O)(=O)O [Methanesulfonic, 1-(2-methylpropyl)-1H-imidazo[4,5-c][1,5]naphthyridin-4-amine methanesulfonate] |  |  |  | good aqueous solubility | 10.5 | 10.3 | Translucent | 15.2 |  |  | good physical and chemical stability in solid form | 
